Reference: paper PMC8803738, “Impact of the mouse model and molar amount of injected ligand on the tissue distribution profile of PSMA radioligands” (European Journal of Nuclear Medicine and Molecular Imaging, 2021)

Columns and labels:
[1] = tested on: PC-3 PIP/flu tumor-bearing mice; experiment: Biodistribution in PC-3 PIP/flu tumor-bearing mice; format: in vivo, mouse; details: for AUCTu(0→48 h)-to-AUCKi(0→48 h) ratio: PC-3 PIP model (female mice); for AUCTu(0→48 h)-to-AUCKi(0→48 h) ratio / AUC0→48h, Kidneys / AUC0→48h, PC-3 PIP tumor: average ± SE, non-decay-corrected
Procedure: Male BALB/c nude mice were subcutaneously inoculated on the right shoulder with LNCaP tumor cells (5 × 10^6 cells in PBS mixed with Matrigel (20 mg/mL, BD Biosciences) at a ratio of 3 to 1 (v/v) to a total volume of 200 μL per mouse). Biodistribution and SPECT/CT imaging studies with both tumor xenograft models were performed when the tumors reached a volume of 100–300 mm^3.
[^177Lu]Lu-Ibu-DAB-PSMA (5 MBq, 100 µL) and [^177Lu]Lu-PSMA-617 (5 MBq, 100 µL) were diluted in saline containing 0.05% bovine serum albumin (BSA) to prevent adherence of the radioligands to the syringe. The radioligands were intravenously injected at a ligand amount of 0.05 nmol or 1.0 nmol per mouse. The number of mice per setting was commonly n = 3 and, in case of inconclusive results, additional mice up to a total of n = 6 were included. The mice were sacrificed at 4 h, 24 h, or 48 h post injection (p.i.) and selected tissues and organs were collected, weighed, and counted in a γ-counter (Supplementary Material). The data sets were analyzed for significance using a one-way ANOVA with Sidak’s multiple comparison post-test using the GraphPad Prism software (version 8). A p value of < 0.05 was considered statistically significant. Tumor-to-kidney and tumor-to-blood ratios were calculated for all investigated timepoints after injection of each radioligand.
Time-activity curves over the first 48 h after injection of the radioligands were determined for the PC-3 PIP tumor, the LNCaP tumor, and the kidneys of the corresponding xenograft model based on non-decay-corrected time-dependent biodistribution data obtained at 4 h, 24 h, and 48 h p.i. This allowed calculating the areas under the curve (AUC0→48 h) using the GraphPad Prism software (version 8) (Supplementary Material). The tumor-to-kidney AUC0→48 h ratios were calculated for both xenograft models.
3. Biodistribution studies
Purpose: The impact of the tumor mouse model and the injected ligand amount on the biodistribution of [177Lu]Lu-Ibu-DAB-PSMA and [177Lu]Lu-PSMA-617 was investigated.
Methods: The biodistribution studies were conducted with either PC-3 PIP/flu or LNCaP tumor-bearing mice injected with either 0.05 nmol or 1.0 nmol of radioligand per mouse, whereas the applied activity was kept constant for each setting. The results were decay-corrected and the values indicated as average ± SD obtained from each gr oup of mice (n = 3−6) and listed as percentage of injected activity per gra m tissue [% IA/g].
Results: The results are listed below (Table S1–S4) and described and discussed in the main article.
Table S1 Decay -corrected biodistribution data of [177Lu]Lu-Ibu-DAB-PSMA in PC-3 PIP/flu tumor-bearing mice injected with either 0. 05 nmol or 1.0 nmol per mouse. The values are indicated as average ± SD obtained from each group of mice (n = 3−6) and listed as percentage of injected activity per gram […]
Dissection time 4 h p.i. 24 h p.i. 48 h p.i. […]
a Data obtained with 1.0 nmol [177Lu]Lu-Ibu-DAB-PSMA were reproduced from Deberle et al. […]
radioligands in order to be able to judge the changes in activity uptake in the tumor and kidney s as a consequence of the tumor model and the injected amount of ligand, respectively.
Methods: T he time-activity curves over the first 48 h after injection were determined for the PC-3 PIP tumor, the LNCaP tumor as well as for the kidneys of each tumor mouse model based on non-decay - corrected time-dependent biodistribution data. For these calculations, the radioligand uptake in the tumors and the kidney s at t = 0 h p.i. was set to 0% IA/g.

[2] = PC-3 PIP model, 4 h p.i., 0.05 nmol
[3] = PC-3 PIP model, 24 h p.i., 0.05 nmol
[4] = PC-3 PIP model, 48 h p.i., 0.05 nmol

Procedure for PC-3 PIP tumor cells: The cells were cultured in RPMI-1640 cell culture medium supplemented with 10% fetal calf serum, L-glutamine, and antibiotics. Puromycin (2 μg/mL) was used to maintain PSMA expression as previously reported [24]. […] The cells were cultured under standard cell culture conditions in RPMI-1640 medium supplemented with 10% fetal calf serum, L-glutamine, antibiotics, and pyruvate (1 mM).
In brief, PC-3 PIP and LNCaP tumor cells were seeded in 12-well plates (3 × 10^5 cells and 1 × 10^6 cells in 2 mL medium/well, respectively) and incubated overnight. Both PSMA radioligands were applied at variable molar concentrations (0.75–500 nM) but at a constant activity concentration of 37.5 kBq/mL. The tumor cells were incubated for 4 h followed by washing steps and detachment of the cells for counting in a γ-counter (Perkin Elmer, Wallac Wizard 1480). The studies were performed in three independent experiments of six replicates. Statistical analysis was performed using a two-way ANOVA with Tukey’s and Sidak’s multiple comparison post-test in Graph Pad Prism (version 8) for different concentrations of the same radioligand and for the two radioligands at the same concentration, respectively. A p value of < 0.05 was considered statistically significant.
Both tumor cell types were kept in a humidified atmosphere at 37 °C and 5% CO2. Routine cell culture
was performed twice a week using PBS/EDTA (2 mM) and trypsin for cell detachment.
internalization of the radioligands into PC-3 PIP and LNCaP tumor cells.
Methods: Uptake and internalization studies were performed with PC-3 PIP and LNCaP tumor cells
using variable concentrations of the respective ligand but constant activity concentrations. PC-3 PIP
and LNCaP cells were seeded in 12-well plates and incubated at 37 °C and 5% CO2 overnight.
Experiments with LNCaP cells were performed with poly -L-lysine-coated well plates to ensure better
cell adherence. The radioligand solution was diluted using saline containing 0.05% bovine serum
albumin (BSA) to avoid adherence to the vial. A defined volume of 25 µL (corresponding to 37.5 kBq) […]

CC(C)Cc1ccc(C(C)C(=O)NC(CCN)C(=O)NCCCCC(NC(=O)CN2CCN(CC(=O)O)CCN(CC(=O)O)CCN(CC(=O)O)CC2)C(=O)NCC2CCC(C(=O)NC(Cc3ccc4ccccc4c3)C(=O)NCCCCC(NC(=O)NC(CCC(=O)O)C(=O)O)C(=O)O)CC2)cc1 (centres unmarked) [[^177Lu]Lu-Ibu-DAB-PSMA, metal not drawn]
PC-3 PIP tumor uptake, low vs high ligand amount ([1]; 0.05 nmol vs 1.0 nmol, 24 h and 48 h p.i.): 1.5–1.6 fold
AUCTu(0→48 h)-to-AUCKi(0→48 h) ratio ([1]; 0.05 nmol): 3.2 ± 0.5
AUCTu(0→48 h)-to-AUCKi(0→48 h) ratio ([1]; 1.0 nmol): 5.6 ± 0.7
AUC0→48h, Kidneys ([1]; PC-3 PIP model, 0.05 nmol): 945 ± 97 % IA/g*h
AUC0→48h, PC-3 PIP tumor ([1]; PC-3 PIP model, 0.05 nmol): 3027 ± 206 % IA/g*h
Increase of tumor-to-kidney AUC0→48 h ratio for high vs low molar amount of injected ligand ([1]; PC-3 PIP model, 1.0 nmol vs 0.05 nmol): 1.8 fold
AUC0→48h, Kidneys ([1]; PC-3 PIP model, 1.0 nmol): 388 ± 23 % IA/g*h
AUC0→48h, PC-3 PIP tumor ([1]; PC-3 PIP model, 1.0 nmol): 2166 ± 153 % IA/g*h
Tissue distribution, Blood [1, 2]: 1.3 ± 0.3 % IA/g
Tissue distribution, Bone [1, 2]: 0.29 ± 0.06 % IA/g
Tissue distribution, Heart [1, 2]: 0.54 ± 0.12 % IA/g
Tissue distribution, Intestines [1, 2]: 0.29 ± 0.05 % IA/g
Tissue distribution, Kidneys [1, 2]: 69 ± 10 % IA/g
Tissue distribution, Liver [1, 2]: 1.1 ± 0.1 % IA/g
Tissue distribution, Lung [1, 2]: 1.3 ± 0.3 % IA/g
Tissue distribution, Muscle [1, 2]: 0.22 ± 0.06 % IA/g
Tissue distribution, PC-3 PIP tumor [1, 2]: 81 ± 4 % IA/g
Tissue distribution, PC-3 flu tumor [1, 2]: 0.67 ± 0.10 % IA/g
Tissue distribution, Salivary glands [1, 2]: 0.69 ± 0.18 % IA/g
Tissue distribution, Spleen [1, 2]: 1.9 ± 0.4 % IA/g
Tissue distribution, Stomach [1, 2]: 0.33 ± 0.09 % IA/g
Tumor-to-blood ratio [1, 2]: 65 ± 20
Tumor-to-kidney ratio [1, 2]: 1.2 ± 0.2
Tumor-to-liver ratio [1, 2]: 74 ± 8
Tissue distribution, Blood [1, 3]: 0.23 ± 0.03 % IA/g
Tissue distribution, Bone [1, 3]: 0.13 ± 0.04 % IA/g
Tissue distribution, Heart [1, 3]: 0.15 ± 0.02 % IA/g
Tissue distribution, Intestines [1, 3]: 0.11 ± 0.03 % IA/g
Tissue distribution, Kidneys [1, 3]: 5.5 ± 1.0 % IA/g
Tissue distribution, Liver [1, 3]: 0.54 ± 0.13 % IA/g
Tissue distribution, Lung [1, 3]: 0.27 ± 0.04 % IA/g
Tissue distribution, Muscle [1, 3]: < 0.10 % IA/g
Tissue distribution, PC-3 PIP tumor [1, 3]: 78 ± 14 % IA/g
Tissue distribution, PC-3 flu tumor [1, 3]: 0.31 ± 0.05 % IA/g
Tissue distribution, Salivary glands [1, 3]: 0.21 ± 0.02 % IA/g
Tissue distribution, Spleen [1, 3]: 0.42 ± 0.09 % IA/g
Tissue distribution, Stomach [1, 3]: 0.11 ± 0.02 % IA/g
Tumor-to-blood ratio [1, 3]: 341 ± 48
Tumor-to-kidney ratio [1, 3]: 14 ± 2
Tumor-to-liver ratio [1, 3]: 149 ± 34
Tissue distribution, Blood [1, 4]: 0.13 ± 0.03 % IA/g
Tissue distribution, Bone [1, 4]: < 0.10 % IA/g
Tissue distribution, Heart [1, 4]: < 0.10 % IA/g
Tissue distribution, Intestines [1, 4]: < 0.10 % IA/g
Tissue distribution, Kidneys [1, 4]: 2.3 ± 0.4 % IA/g
Tissue distribution, Liver [1, 4]: 0.28 ± 0.03 % IA/g
Tissue distribution, Lung [1, 4]: 0.18 ± 0.04 % IA/g
Tissue distribution, Muscle [1, 4]: < 0.10 % IA/g
Tissue distribution, PC-3 PIP tumor [1, 4]: 58 ± 9 % IA/g
Tissue distribution, PC-3 flu tumor [1, 4]: 0.17 ± 0.01 % IA/g
Tissue distribution, Salivary glands [1, 4]: 0.11 ± 0.02 % IA/g
Tissue distribution, Spleen [1, 4]: 0.25 ± 0.05 % IA/g
Tissue distribution, Stomach [1, 4]: 0.12 ± 0.08 % IA/g
Tumor-to-blood ratio [1, 4]: 445 ± 51
Tumor-to-kidney ratio [1, 4]: 26 ± 2
Tumor-to-liver ratio [1, 4]: 205 ± 10
Absolute amount of internalized radioligand (PC-3 PIP tumor cells; 0.00075 µM): 14–21 % of total added activity
Internalized fraction (PC-3 PIP tumor cells; 4 h): 23–28 % of total uptake
Cell uptake (PC-3 PIP tumor cells; 4 h, 0.5 µM): ≤ 2%
